According to patent US20120121610A1, “THERAPEUTIC AGENT AND ASSAY” (priority 2009, published 2012):

Assays:
HeLa cells = test: BrdU pulse / PI bivariate FACS analysis of replisome stability; assay type: cell-based; settings: hydroxyurea 24 hr
Description: In order to evaluate the effect of Claspin depletion on replisome stability, the ability of Claspin-depleted cells to maintain functional replisomes in the continuous presence of imposed replicational stress was investigated (FIG. 1). To do this, cells were treated with buffer control or 2 mM hydroxyurea (HU) for 24 h, then exposed to a 30 min pulse of BrdU, prior to fixation and PI staining, and subsequent bivariate FACS analysis.
(§1) HeLa or HCC1937 cells were seeded at 5×10^4 or 2×10^5 cells into 6-well tissue culture plates respectively, in 1 mL of their media and left for 24 hours. Cells were then washed twice with warm PBS and transfected twice over 48 hours with SMARTpool™ siRNA against Claspin (Dharmacon, Chicago, Ill., USA) at a concentration of 100 nM for 5 hours in serum free media (OptiMEM (Invitrogen)) using Oligofectamine (Invitrogen) as per manufacturer's instructions. After each transfection, cells were then washed once with warm PBS, and 1.5 mL of media added and then left for 19 hours. After transfection cells were trypsinized and seeded into 60 mm dishes and left in fresh media for 24 hours before being treated with either 0 or 2 mM HU for 24 hours. Alternatively cells were untreated, left in a flow cabinet for an equivalent time. […]

HCC1937 cells = test: as above; assay type: cell-based; settings: mock siRNA-treated HCC1937 cells
Description: BRCA1 has been implicated previously in the cellular response to IR, and BRCA1-deficient cells fail to activate Chk1 following IR exposure. The inventors investigated the effect of siRNA-mediated knockdown of Claspin in HCC1937 cells which lack functional BRCA1 and which have been previously shown to have a defective G2 checkpoint, failing to arrest on exposure to IR. […] The loss of BrdU incorporation was particularly observed in mid- to late-S phase cells.
as §1

MDC1 = target: T1, MDC1 (UniProt Q14676 1-2089); test: co-immunoprecipitation with anti-Chk1 antibody from HeLa cell extracts, immunoblot
T1 construct: Endogenous protein in HeLa whole cell extract
Description: (§2) Cells were then lysed through 3 freeze/thaw cycles, and clarified by centrifugation at 14,000 rpm for 5 mins at 4° C. The supernatant was then removed and assayed for concentration by Bradford assay (Pierce) and aliquots stored at −70° C. until use. For immunoblotting 25-60 μg of whole cell extract was used per well in Laemmli SDS loading buffer. Extracts were separated on 6-12% SDS-PAGE gels before being transferred to nitrocellulose membrane (Protran) for probing. Membranes were blocked in either 5% Marvel milk or 5% BSA according to antibody manufacturer's guidelines. Membranes were then washed before being probed with primary antibodies diluted in blocking buffer. […] Secondary antibodies were anti-rabbit IgG-HRP, anti-sheep IgG-HRP and anti-mouse IgG-HRP (Jackson Immunologicals) and bands were detected using enhanced chemiluminescence (ECL) (Amersham Pharmacia) and autoradiographic film (FUJI film).
(§3) Immunoprecipitation (IP) as carried out with 500 μg to 1 mg of whole cell extract per IP. […] Complexes isolated were then analysed by immunoblotting.

TopBP1 = target: T2, TopBP1 (UniProt Q92547 1-1522); test: as above
T2 construct: Endogenous protein in HeLa whole cell extract
Description: as §2, §3

T2 sequence (Q92547 whole entry): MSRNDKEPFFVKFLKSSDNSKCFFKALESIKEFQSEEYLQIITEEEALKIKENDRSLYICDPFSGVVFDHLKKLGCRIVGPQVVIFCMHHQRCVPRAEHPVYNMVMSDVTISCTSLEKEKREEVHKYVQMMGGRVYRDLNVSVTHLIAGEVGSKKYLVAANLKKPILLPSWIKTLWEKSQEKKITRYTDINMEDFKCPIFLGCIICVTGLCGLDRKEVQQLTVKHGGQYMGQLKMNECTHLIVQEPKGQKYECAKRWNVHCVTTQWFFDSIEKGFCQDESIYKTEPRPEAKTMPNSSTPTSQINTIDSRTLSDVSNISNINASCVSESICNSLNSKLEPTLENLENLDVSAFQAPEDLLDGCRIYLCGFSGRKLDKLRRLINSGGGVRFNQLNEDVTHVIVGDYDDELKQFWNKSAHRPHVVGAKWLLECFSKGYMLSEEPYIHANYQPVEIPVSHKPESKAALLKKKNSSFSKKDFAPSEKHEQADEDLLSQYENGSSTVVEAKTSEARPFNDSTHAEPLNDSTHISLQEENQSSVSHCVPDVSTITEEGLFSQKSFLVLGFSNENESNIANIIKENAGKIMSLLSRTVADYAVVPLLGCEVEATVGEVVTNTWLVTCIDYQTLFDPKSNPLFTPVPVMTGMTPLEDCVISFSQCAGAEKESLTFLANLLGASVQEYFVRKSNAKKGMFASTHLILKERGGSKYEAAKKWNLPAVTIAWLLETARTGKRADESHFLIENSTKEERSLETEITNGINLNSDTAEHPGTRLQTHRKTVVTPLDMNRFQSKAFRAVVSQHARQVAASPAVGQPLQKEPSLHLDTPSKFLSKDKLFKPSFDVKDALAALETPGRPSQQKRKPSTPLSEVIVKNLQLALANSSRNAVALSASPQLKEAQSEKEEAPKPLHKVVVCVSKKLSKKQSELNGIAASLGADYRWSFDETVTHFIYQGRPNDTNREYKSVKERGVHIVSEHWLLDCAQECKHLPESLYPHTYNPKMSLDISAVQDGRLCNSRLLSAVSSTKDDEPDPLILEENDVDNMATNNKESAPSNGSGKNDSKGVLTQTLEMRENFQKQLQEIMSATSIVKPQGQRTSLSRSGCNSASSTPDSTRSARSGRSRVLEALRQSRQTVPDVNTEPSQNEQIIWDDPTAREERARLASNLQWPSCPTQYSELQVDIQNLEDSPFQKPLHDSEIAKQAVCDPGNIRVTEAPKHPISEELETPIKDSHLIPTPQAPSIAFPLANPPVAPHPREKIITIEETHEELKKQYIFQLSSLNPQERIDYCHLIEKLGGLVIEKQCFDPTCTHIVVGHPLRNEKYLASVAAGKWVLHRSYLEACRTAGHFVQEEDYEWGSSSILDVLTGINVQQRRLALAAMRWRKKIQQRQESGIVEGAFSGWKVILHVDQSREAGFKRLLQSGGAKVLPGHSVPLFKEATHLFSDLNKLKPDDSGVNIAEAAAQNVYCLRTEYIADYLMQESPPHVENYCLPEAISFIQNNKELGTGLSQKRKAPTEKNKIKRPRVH
T1 sequence (Q14676 whole entry): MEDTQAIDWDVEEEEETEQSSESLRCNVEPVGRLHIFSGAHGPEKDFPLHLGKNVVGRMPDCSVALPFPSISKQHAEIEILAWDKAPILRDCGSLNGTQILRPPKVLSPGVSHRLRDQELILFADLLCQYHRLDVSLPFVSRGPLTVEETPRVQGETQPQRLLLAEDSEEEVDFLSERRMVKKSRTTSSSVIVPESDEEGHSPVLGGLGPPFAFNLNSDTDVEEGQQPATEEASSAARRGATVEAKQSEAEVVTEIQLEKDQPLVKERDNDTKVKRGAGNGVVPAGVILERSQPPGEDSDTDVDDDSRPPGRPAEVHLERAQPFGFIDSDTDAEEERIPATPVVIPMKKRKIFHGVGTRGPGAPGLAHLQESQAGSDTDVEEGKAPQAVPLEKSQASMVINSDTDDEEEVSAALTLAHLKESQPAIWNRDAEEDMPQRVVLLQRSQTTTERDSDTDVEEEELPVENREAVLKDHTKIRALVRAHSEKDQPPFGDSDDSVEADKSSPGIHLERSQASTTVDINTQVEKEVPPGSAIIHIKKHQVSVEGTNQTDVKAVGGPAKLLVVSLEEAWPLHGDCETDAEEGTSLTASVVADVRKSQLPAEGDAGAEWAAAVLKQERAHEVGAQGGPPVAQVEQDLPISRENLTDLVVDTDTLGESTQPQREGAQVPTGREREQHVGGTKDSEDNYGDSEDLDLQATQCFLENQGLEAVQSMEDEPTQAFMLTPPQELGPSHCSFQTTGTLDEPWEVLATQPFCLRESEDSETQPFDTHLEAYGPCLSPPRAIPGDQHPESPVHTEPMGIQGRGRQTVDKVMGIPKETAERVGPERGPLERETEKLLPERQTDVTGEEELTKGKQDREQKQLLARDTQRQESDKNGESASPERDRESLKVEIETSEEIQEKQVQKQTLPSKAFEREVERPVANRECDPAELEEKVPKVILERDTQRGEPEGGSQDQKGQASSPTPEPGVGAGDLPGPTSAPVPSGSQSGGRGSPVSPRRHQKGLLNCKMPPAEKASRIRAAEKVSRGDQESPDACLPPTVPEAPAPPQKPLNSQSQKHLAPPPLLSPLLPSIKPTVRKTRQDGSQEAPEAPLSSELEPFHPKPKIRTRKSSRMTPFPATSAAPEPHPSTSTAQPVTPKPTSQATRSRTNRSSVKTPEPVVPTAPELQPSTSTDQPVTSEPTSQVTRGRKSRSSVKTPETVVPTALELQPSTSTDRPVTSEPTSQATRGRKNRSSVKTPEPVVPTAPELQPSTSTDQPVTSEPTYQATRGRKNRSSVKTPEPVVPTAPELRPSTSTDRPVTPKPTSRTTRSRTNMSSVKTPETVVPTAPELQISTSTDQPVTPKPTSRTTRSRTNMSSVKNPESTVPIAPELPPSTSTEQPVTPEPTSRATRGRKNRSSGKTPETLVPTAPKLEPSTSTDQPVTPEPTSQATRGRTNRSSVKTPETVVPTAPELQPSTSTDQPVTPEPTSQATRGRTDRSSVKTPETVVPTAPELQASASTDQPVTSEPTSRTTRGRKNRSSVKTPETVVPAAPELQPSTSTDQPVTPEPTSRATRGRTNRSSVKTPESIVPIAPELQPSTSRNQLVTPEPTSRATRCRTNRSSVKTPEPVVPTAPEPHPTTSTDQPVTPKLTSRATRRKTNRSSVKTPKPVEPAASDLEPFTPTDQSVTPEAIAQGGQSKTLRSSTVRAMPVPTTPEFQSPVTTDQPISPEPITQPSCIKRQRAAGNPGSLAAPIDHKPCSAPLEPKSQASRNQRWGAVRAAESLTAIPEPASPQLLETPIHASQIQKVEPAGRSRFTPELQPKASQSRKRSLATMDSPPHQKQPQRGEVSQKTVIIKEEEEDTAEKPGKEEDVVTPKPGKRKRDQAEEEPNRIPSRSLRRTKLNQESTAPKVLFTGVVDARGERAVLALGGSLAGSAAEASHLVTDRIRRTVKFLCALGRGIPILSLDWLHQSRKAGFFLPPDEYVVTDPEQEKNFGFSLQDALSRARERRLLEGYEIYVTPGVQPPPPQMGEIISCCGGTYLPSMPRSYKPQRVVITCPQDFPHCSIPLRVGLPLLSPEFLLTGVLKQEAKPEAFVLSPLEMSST

For `NC(=O)NO` [hydroxyurea], the “accumulation of cells in early S phase” value (HeLa cells) was “significant accumulation of cells in early S phase” and the “accumulation of cells in early S-phase” value (HCC1937 cells) was “accumulation of cells in early S-phase”.

B1: Chk1 (serine/threonine protein kinase Chk1) (enzyme, UniProt O14757 1-476, looked up)
chain: MAVPFVEDWDLVQTLGEGAYGEVQLAVNRVTEEAVAVKIVDMKRAVDCPENIKKEICINKMLNHENVVKFYGHRREGNIQYLFLEYCSGGELFDRIEPDIGMPEPDAQRFFHQLMAGVVYLHGIGITHRDIKPENLLLDERDNLKISDFGLATVFRYNNRERLLNKMCGTLPYVAPELLKRREFHAEPVDVWSCGIVLTAMLAGELPWDQPSDSCQEYSDWKEKKTYLNPWKKIDSAPLALLHKILVENPSARITIPDIKKDRWYNKPLKKGAKRPRVTSGGVSESPSGFSKHIQSNLDFSPVNSASSEENVKYSSSQPEPRTGLSLWDTSPSYIDKLVQGISFSQPTCPDHMLLNSQLLGTPGSSQNPWQRLVKRMTRFFTKLDADKSYQCLKETCEKLGYQWKKSCMNQVTISTTDRRNNKLIFKVNLLEMDDKILVDFRLSKGDGLEFKRHFLKIKGKLIDIVSSQKIWLPAT
notes: Endogenous protein in HeLa whole cell extract; HeLa is a human cell line; also called Chk1 protein kinase
B1: no binding (MDC1); no binding (TopBP1).
